# Measured values published in patent publication US20230158033A1, “Method of Treating Pemphigus by Administering (R)-2-[3-[4-Amino-3-(2-Fluoro-4-Phenoxy-Phenyl)Pyrazolo[3,4-D]Pyrimidin-1-YL]Piperidine-1-Carbonyl]-4-Methyl-4-[4-(Oxetan-3-YL)Piperazin-1-YL]Pent-2-Enenitrile” (Principia Biopharma Inc., priority 2019, published 2023).
# Where “and” joins values, the source holds several entries; their conditions need not be identical. Equal values may be shown once.
# Legend:
# [1] = healthy volunteer population (Evans 2013); cited from earlier work
# [2] = tested on: patients with newly diagnosed or relapsing pemphigus; assay: Phase 2 study Part A (400 mg BID up to 600 mg BID, 12-week treatment): clinical activity; format: in vivo, human; settings: for patients who achieved complete remission (CR): n = 24
# [3] = Plasma concentration of PRN1008, Part A; format: in vivo; settings: human, oral, read-out: plasma levels at 12 hours post-dose (trough point)
# [4] = tested on: patients with pemphigus (PV and PF); assay: Interim data as of Jan. 18, 2018 in patients with pemphigus (PV and PF); format: in vivo, human
# Procedure: As of Jan. 18, 2018, PRN1008 had been administered to 21 patients with pemphigus (pemphigus vulgaris (PV) and pemphigus foliaceus (PF)), 18 of whom had 4 or more weeks of treatment with […]1008 was well-tolerated in this study. […] Three patients achieved CDA on no CS. Two patients required high-dose CS temporarily during PRN1008 treatment due to worsening of disease activity. Four patients achieved complete remission (CR) on 1 to 20 mg/day of CS, three achieved CR at Week 13 (25%), and one achieved CR at Week 21.
# [5] = tested on: fetal development, male fertility; assay: Preclinical reproductive toxicity studies; format: in vivo
# [6] = tested on: rats with collagen-induced arthritis; settings: rats with collagen-induced arthritis (Hill R et al., 2015); cited from earlier work
# [7] = tested on: canines with naturally occurring PF; settings: canines with naturally occurring PF (Murrell DF, 2019); cited from earlier work
# [8] = tested on: healthy volunteers; settings: Phase 1, healthy volunteers (Smith PF 2017); cited from earlier work
# [9] = tested on: patients with pemphigus; assay: Safety (adverse events), Part B
# Procedure: (§1) Specific assessments to evaluate treatment safety included the following: (1) the frequency and type of AEs; (2) clinical laboratory testing; (3) SNAQ appetite questionnaire; and (4) vital signs. Typically, patients remained under observation in the clinic for 2 hours after administration of the first PRN1008 dose and until the PK sample was drawn.
# (§2) The primary safety outcome measures were incidence of treatment-emergent AEs (TEAEs), including clinically significant changes in physical examination, laboratory tests, and vital signs.
# (§3) Investigators were instructed to report in detail all AEs encountered during the clinical study in the source documents, from the date of participant consent throughout the follow-up visit. Investigators were also instructed to report pre-existing conditions that worsen during a study were instructed as AEs, with the exception of the disease under study as it was expected that there may be variation in pemphigus disease activity intended to be captured in other measurements.
# (§4) Investigators were instructed to grade AEs based on the NCI CTCAE, Version 4.0 or higher.
# (§5) Investigators were instructed to use their knowledge of the study participant, the circumstances surrounding the event, and an evaluation of any potential alternative causes to determine whether or not an AE is considered to be related to the study drug, indicating “yes” or “no” accordingly.
# [10] = tested on: anti-dsg 1 and anti-dsg 3 autoantibody levels; assay: Anti-dsg autoantibody levels by ELISA, Part A; settings: including patients with high autoantibody levels at baseline
# Source text: PK outcome measures investigated included plasma concentrations of PRN1008 at approximately the time of maximum concentration on Day 1 and at various subsequent times during outpatient dosing.
# [11] = tested on: patients with pemphigus (Safety Population); assay: Safety (treatment-emergent adverse events), Part A
# Procedure: as §1, §2, §3, §4, §5
# [12] = Relative bioavailability study, tablet vs liquid formulation
# [13] = tested on: patients with newly diagnosed or relapsing pemphigus; assay: Phase 2 study Part B (400 mg QD up to 600 mg BID, 24-week treatment): clinical activity; settings: for Median PDAI: 12 at day 1
# Procedure: Generally, clinical response is shown by some improvement seen in first 2 weeks with CDA achieved by the Week 5 visit. […] Typically, clinical response and tolerability were assessed at each visit.
# PDAI and ABSIS assessments were employed to monitor pemphigus disease activity. […] Photography was used to document skin disease changes where appropriate.
# Part B was a multicenter, open-label, single-arm Phase 2 study (NCT02704429) designed to further evaluate the efficacy and safety of PRN1008 in pemphigus patients. Patients received an initial dose of 400 mg PRN1008 once a day (QD) with possible dose adjustment up to 600 mg BID at investigator discretion. Treatment duration was 24 weeks with an additional 4 weeks of follow-up off treatment.
compound,measurement,setting,value
C=CC(=O)Nc1cccc(Nc2nc(Nc3ccc(OCCOC)cc3)ncc2F)c1 [CC-292],tolerability,[1],well tolerated
"CC(C)(C=C(C#N)C(=O)N1CCC[C@@H](n2nc(-c3ccc(Oc4ccccc4)cc3F)c3c(N)ncnc32)C1)N1CCN(C2COC2)CC1 [PRN1008, (R)-2-[3-[4-amino-3-(2-fluoro-4-phenoxy-phenyl)pyrazolo[3,4-d]pyrimidin-1-yl]piperidine-1-carbonyl]-4-methyl-4-[4-(oxetan-3-yl)piperazin-1-yl]pent-2-enenitrile]",Efficacy across subgroups,[2],43-64%
same,additional patients who achieved CR at Week 13 without CS use,[2],four
same,patients who achieved CDA at or prior to the Week 5 visit without the use of CS,[2],Three
same,patients who did not require dose escalation to achieve response,[2],90%
same,patients who needed dose escalation beyond the standard 400 mg bid,[2],three
same,patients who achieved control of disease activity (CDA),"[2]; 400 mg BID (up to 600 mg BID), 2 weeks / study day 15, n = 26",27%
same,"CDA with low dose CS by Day 29, dosing subgroup","[2]; 400 mg BID subgroup, 12 of 23",52%
same,"CDA with low dose CS by Day 29, dosing subgroup","[2]; 500 mg BID subgroup, 1 of 1",100%
same,"CDA with low dose CS by Day 29, dosing subgroup","[2]; 600 mg BID subgroup, 1 of 2",50%
same,patients who achieved control of disease activity (CDA) with low dose CS,"[2]; 4 weeks / Day 29, CS <= 0.5 mg/kg/day, n = 26 (primary endpoint), 0.5 mg/kg/day",54% and > 50%
same,CDA rate in newly diagnosed patients,[2]; 6 of 8,75%
same,patients who achieved CR during the study period,[2]; 6 of 26,23%
same,patients who achieved complete remission (CR),"[2]; 12 weeks (treatment period), patients that completed the study",16.7% and 17%
same,patients who achieved control of disease activity (CDA) with low dose CS,[2]; 12 weeks / Day 85,73%
same,CDA rate in relapsing patients,[2]; 13 of 18,72%
same,patients who achieved complete remission (CR),"[2]; 24 weeks (12 weeks on, 12 weeks off treatment; follow-up by Day 141)",25%
same,PDAI scores on the Day 85 visit,[2]; all of 11 patients with milder disease,≤ 5
same,Mean CS dose after 12 weeks of treatment,"[2]; all patients, SD = 10, baseline 14 mg/day (SD = 11)",12 mg/day
same,mean CS dose at CR,[2]; dropped from 14 mg/day at baseline,8 mg/day
same,additional patients who achieved CR on CS <= 0.5 mg/kg/day by Day 141,[2]; follow-up period,two
same,patients who achieved CR on CS doses <= 0.5 mg/kg/day by Day 85,[2]; four patients of 26,15%
same,patients who needed CS rescue > 0.5 mg/kg,[2]; in the 12 weeks off PRN1008,4 patients
same,median reduction in PDAI scores,[2]; over 12 weeks of treatment,70%
same,mean CS dose at the time CR was achieved,"[2]; patients who achieved CR, range 1-20 mg",8 mg
same,median CR duration,[2]; post-treatment,96 days
same,mean CS dose during CR duration,"[2]; post-treatment, range 0.7-20 mg/day",8 mg/day
same,CDA rate in patients with a positive anti-dsg 3 antibody,[2]; slightly higher than overall mITT population,64%
same,concentration at 12 h,[3],9.5 ng/mL
same,patients who achieved CDA on no CS,[4],Three
same,patients who achieved CR at Week 21,[4],one
same,patients who achieved complete remission (CR) on 1 to 20 mg/day of CS,[4],Four
same,patients who met the primary endpoint CDA on CS <= 0.5 mg/kg/day by the Week 5 visit,[4]; 11 of 18 patients with efficacy data,61%
same,tolerability,[4]; 21 patients with pemphigus,well-tolerated
same,patients who required high-dose CS temporarily due to worsening of disease activity,[4]; during PRN1008 treatment,Two
same,patients who achieved CR at Week 13,[4]; three patients,25%
same,reproductive toxicity,[5],not expected to harm fetal development or male fertility
same,disease symptoms and outcomes,[6],improved disease symptoms and outcomes
same,disease symptoms and outcomes,[7],improved disease symptoms and outcomes
same,discontinuation due to an adverse event,[8],no participants discontinued treatment due to an adverse event
same,most commonly reported adverse events,[8],"gastrointestinal adverse events, including nausea/vomiting and diarrhea"
same,serious adverse events or deaths,[8],No serious adverse events or deaths were reported
same,tolerability,[9],well tolerated
same,severity of treatment-related AEs,[9]; all treatment-related AEs,mild-moderate and transient
same,Treatment-related AEs with an incidence greater than 10%,[9]; mild to moderate (grade 1 and 2),"nausea, abdominal distension, infection, and oropharyngeal pain"
same,patients who reported a mild related infection,"[9]; of 15, grade 1 nasopharyngitis, grade 1 tracheitis",2 patients
same,median reduction of autoantibody levels,[10],up to 65%
same,"AEs commonly associated with marketed BTKi (major hemorrhage, atrial fibrillation, thrombocytopenia/neutropenia)",[11]; Part A,no cases
same,AEs related to the study drug: headache,[11]; Part A,11%
same,AEs related to the study drug: nausea,[11]; Part A,15%
same,AEs related to the study drug: upper abdominal pain,[11]; Part A,11%
same,patients who experienced Serious AEs (SAE),[11]; Part A,Three
same,patients who experienced a TEAE,"[11]; Part A Safety Population, 20 of 27",74%
same,only treatment related SAE,"[11]; Part A, Day 26, patient with type II diabetes",cellulitis (Grade 3)
same,AEs that were Grade 1 or 2,"[11]; Part A, number of AEs out of all AEs",94/97
same,exposure of the tablet relative to the equal dose of the liquid formulation,[12],~ 70%
same,patients who achieved CDA,"[13]; 400 mg QD only, 2 weeks, n = 14 (FIG. 6)",29%
same,patients who achieved CDA,"[13]; 400 mg QD only, 4 weeks, n = 14 (FIG. 6)",43%
same,patients who achieved CDA,"[13]; 400 mg QD only, 4 weeks, n = 14 (FIG. 8B, 80% CI)",50%
same,patients who achieved CDA,"[13]; 400 mg QD only, 12 weeks, n = 14 (FIG. 6)",50%
same,patients who achieved CDA,"[13]; 400 mg QD only, 12 weeks, n = 14 (FIG. 8B, 80% CI)",50%
same,patients who achieved complete remission (CR),"[13]; 400 mg QD only, 12 weeks, n = 14 (FIG. 9B)",7%
same,patients who achieved complete remission (CR),"[13]; 400 mg QD only, 24 weeks, n = 14 (FIG. 9B)",7%
same,patients who achieved complete remission (CR),"[13]; 400 mg QD only, 28 weeks (24 on, 4 off treatment), n = 14 (FIG. 9B)",7%
same,patients who achieved CDA,"[13]; 400 mg QD with dose adjustment up to 600 mg BID, 2 weeks, n = 15 (FIG. 7)",27%
same,patients who achieved CDA,"[13]; 400 mg QD with dose adjustment up to 600 mg BID, 4 weeks, n = 15 (FIG. 7)",53%
same,patients who achieved CDA,"[13]; 400 mg QD with dose adjustment up to 600 mg BID, 12 weeks, n = 15 (FIG. 7)",80%
same,daily corticosteroid usage,[13]; 24 weeks of PRN1008 treatment,decreased
same,Median PDAI,[13]; at 12 weeks,4
same,patients having reached a PDAI of 1 or 0,"[13]; at 24 weeks, 10 out of 15",67%
same,Median PDAI,[13]; at 24 weeks,1
same,reduction in mean PDAI activity score,[13]; by 24 weeks,79%
same,reduction in median PDAI activity score,[13]; by 24 weeks,94%
same,patients who achieved CDA,"[13]; dose adjustment up to 600 mg BID, 4 weeks, n = 15 (FIG. 8A, 80% CI)",60%
same,patients who achieved complete remission (CR),"[13]; dose adjustment up to 600 mg BID, 12 weeks (FIG. 9A)",13%
same,patients who achieved CDA,"[13]; dose adjustment up to 600 mg BID, 12 weeks, n = 15 (FIG. 8A, 80% CI)",87%
same,patients who achieved complete remission (CR),"[13]; dose adjustment up to 600 mg BID, 24 weeks (FIG. 9A)",33%
same,patients who achieved complete remission (CR),"[13]; dose adjustment up to 600 mg BID, 28 weeks (24 on, 4 off treatment) (FIG. 9A)",40%
